Source: ChEMBL document CHEMBL5244275, “Geminal Diheteroatomic Motifs: Some Applications of Acetals, Ketals, and Their Sulfur and Nitrogen Homologues in Medicinal Chemistry and Drug Design” (J Med Chem, 2021)
≈ marks a conversion by molar mass, not a printed value.

Legend:
Substance-P receptor = Substance-P receptor (Homo sapiens, UniProt P25103); assay: Displacement of [125I]-labeled SP from human NK-1 receptor expressed in CHO cells at 1 uM relative to control; type: cell-based; conditions: filed as antagonist
Candida albicans [1] = assay: Antifungal activity against Candida albicans GS; type: functional, organism-based
[2] = Clearance in Chimpanzee at 0.5 mg/kg, iv bolus injection; type: ADME, organism-based, Pan troglodytes; conditions: in vivo
[3] = Clearance in Chimpanzee at 0.5 mg/kg administered as iv infusion; type: ADME, organism-based, Pan troglodytes; conditions: in vivo
Candida albicans [4] = assay: Fungicidal activity against Candida albicans; type: functional
[5] = Stability of the compound assessed as compound hydrolysis by measuring rate constant; type: physicochemical
[6] = Antiplatelet activity in human platelet rich plasma assessed as platelet aggregation; type: functional, cell-free
Mus musculus [7] = species on record: Mus musculus; assay: Analgesic activity in mouse assessed as protection against phenylbenzoquinone-induced writhing; type: functional
[8] = Inhibition of Acinetobacter baumannii beta-lactamase OXA-235
[9] = Inhibition of Acinetobacter baumannii beta-lactamase OXA-143
[10] = Inhibition of Acinetobacter baumannii beta-lactamase OXA-24
[11] = molecular target: Sterol O-acyltransferase 1 (Rattus norvegicus, UniProt O70536); assay: Inhibition of ACAT in rat
[12] = Stability of the compound at pH 2 assessed as half-life; type: physicochemical; conditions: buffer
[13] = Oral bioavailability in mouse; type: ADME, organism-based; conditions: in vivo
[14] = Half-life in iv dosed rat plasma; type: ADME, organism-based
Plasmodium falciparum = assay: Antiplasmodial activity against Plasmodium falciparum W2 assessed as inhibition of parasite growth; type: functional, organism-based
[15] = Drug concentration in rat plasma at 10 mg/kg, po measured after 90 mins; type: ADME, organism-based
[16] = Oral bioavailability in rat; type: ADME, organism-based; conditions: in vivo
Mus musculus [17] = assay: Antiinflammatory activity in LPS-induced Balb/c mouse model assessed as reduction in TNF-alpha release administered orally for 30 mins followed by LPS-stimulation and measured after 90 mins by ELISA analysis; type: functional; conditions: 2 h, route po, time 120 min
MAP kinase p38 = MAP kinase p38 (Homo sapiens, UniProt O15264+Q15759+Q16539+P53778); assay: Inhibition of p38-MAPK (unknown origin); type: protein assay
[18] = Stability of the compound assessed as compound hydrolysis by measuring relative rate constant by dilatometric method; type: physicochemical
[19] = Drug degradation in citrate buffer at pH 4 measured after 18 hrs; type: physicochemical; conditions: read-out: Drug degradation
[20] = Dissociation constant, pKa of the compound; type: physicochemical
[21] = Drug degradation in citrate buffer at pH 8.5 measured after 18 hrs; type: physicochemical; conditions: read-out: Drug degradation
[22] = molecular target: Sodium-dependent dopamine transporter (Homo sapiens, UniProt Q01959); assay: Inhibition of dopamine transporter (unknown origin)
[23] = molecular target: Sodium-dependent serotonin transporter (Homo sapiens, UniProt P31645); assay: Inhibition of SERT (unknown origin)
[24] = Half-life in po dosed rat; type: ADME, organism-based; conditions: in vivo
[25] = molecular target: Hepatitis C virus serine protease, NS3/NS4A (Hepatitis C virus, UniProt A3EZI9+D2K2A8); assay: Inhibition of Hepatitis C virus NS4A-NS3 protease by continuous assay; type: protein-complex assay, Hepacivirus hominis
[26] = tested on: Human immunodeficiency virus 1; assay: Antiviral activity against HIV-1 RF; type: functional, organism-based; conditions: Human immunodeficiency virus 1, RF
[27] = tested on: Human immunodeficiency virus 1; assay: microbe, parasite or virus in culture; conditions: Human immunodeficiency virus 1, LAV
Mus musculus [28] = assay: Anticonvulsant activity in MES induced mouse model of seizure at 75 mg/kg, po measured after 4 hrs relative to control; type: functional
[29] = Bioavailability in dog at 1 mg/kg, iv measured after 30 mins by LC-MS/MS analysis; type: ADME, organism-based, Canis lupus familiaris; conditions: in vivo
[30] = Half-life in human; type: ADME
[31] = Solubility of the compound at pH 7 incubated for 12 hrs by UPLC analysis; type: physicochemical; conditions: buffer, pH 7, 12 h
[32] = Bioavailability in rat at 0.5 mg/kg, iv measured after 30 mins by LC-MS/MS analysis; type: ADME, organism-based; conditions: in vivo
[33] = tested on: Human immunodeficiency virus 1; assay: Selectivity index, ratio of EC50 for antiviral activity against HIV-1 G140S/Q148R mutant to EC50 for antiviral activity against wild-type HIV-1; type: functional
[34] = Unbound fraction in human plasma; type: ADME, cell-free
[35] = tested on: Human immunodeficiency virus 1; assay: Antiviral activity against HIV1 infected in human MT4 cells assessed as inhibition of viral replication; type: functional, organism-based; conditions: Human immunodeficiency virus 1, MT4
PXR (NR1I2) = PXR (NR1I2) (Homo sapiens, UniProt O75469); assay: Activation of PXR (unknown origin) in human DPX2 cells assessed as maximal efficacy at 15 uM relative to control; type: cell-based
[36] = Inhibition of Calcium channel (unknown origin); parameters: species or system Homo sapiens
Cavia porcellus = assay: Antiinflammatory activity in po dosed substance P-induced guinea pig model of dermal inflammation; type: functional; conditions: read-out: ID50 (the source's name)

Sodium-dependent serotonin transporter, sequence (P31645 whole entry): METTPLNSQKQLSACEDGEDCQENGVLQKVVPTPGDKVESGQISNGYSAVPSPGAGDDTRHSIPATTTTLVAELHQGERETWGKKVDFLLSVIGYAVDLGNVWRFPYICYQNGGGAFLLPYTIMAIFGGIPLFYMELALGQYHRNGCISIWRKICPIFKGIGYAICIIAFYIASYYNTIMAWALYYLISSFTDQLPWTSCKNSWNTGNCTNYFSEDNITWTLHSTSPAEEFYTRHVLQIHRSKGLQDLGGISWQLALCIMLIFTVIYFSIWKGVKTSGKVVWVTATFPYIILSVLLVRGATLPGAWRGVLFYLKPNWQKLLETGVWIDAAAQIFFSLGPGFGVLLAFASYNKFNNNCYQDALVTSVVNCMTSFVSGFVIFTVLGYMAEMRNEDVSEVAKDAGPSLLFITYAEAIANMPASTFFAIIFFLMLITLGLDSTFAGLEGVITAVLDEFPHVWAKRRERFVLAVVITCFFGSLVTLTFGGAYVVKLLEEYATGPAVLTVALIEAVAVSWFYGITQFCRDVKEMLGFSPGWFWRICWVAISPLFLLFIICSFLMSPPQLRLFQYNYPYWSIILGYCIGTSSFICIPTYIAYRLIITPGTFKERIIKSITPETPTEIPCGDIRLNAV
Sodium-dependent dopamine transporter, sequence (Q01959 whole entry): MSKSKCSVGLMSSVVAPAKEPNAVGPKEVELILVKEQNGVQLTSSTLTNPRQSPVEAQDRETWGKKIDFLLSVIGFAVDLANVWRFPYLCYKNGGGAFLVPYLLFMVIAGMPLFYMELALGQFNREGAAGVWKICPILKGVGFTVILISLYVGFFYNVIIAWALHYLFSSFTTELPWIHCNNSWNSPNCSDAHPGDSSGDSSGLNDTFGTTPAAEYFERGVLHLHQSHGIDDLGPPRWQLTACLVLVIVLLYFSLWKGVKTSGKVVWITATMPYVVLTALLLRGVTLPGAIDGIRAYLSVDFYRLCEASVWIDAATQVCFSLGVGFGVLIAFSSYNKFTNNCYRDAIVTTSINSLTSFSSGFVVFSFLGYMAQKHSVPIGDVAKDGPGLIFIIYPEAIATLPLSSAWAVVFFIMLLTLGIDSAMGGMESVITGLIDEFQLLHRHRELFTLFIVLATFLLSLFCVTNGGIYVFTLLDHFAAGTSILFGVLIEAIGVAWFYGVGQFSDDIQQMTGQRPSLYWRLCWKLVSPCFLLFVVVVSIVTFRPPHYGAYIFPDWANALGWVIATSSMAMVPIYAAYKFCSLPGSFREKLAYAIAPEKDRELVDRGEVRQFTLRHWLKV
Substance-P receptor, sequence (P25103 whole entry): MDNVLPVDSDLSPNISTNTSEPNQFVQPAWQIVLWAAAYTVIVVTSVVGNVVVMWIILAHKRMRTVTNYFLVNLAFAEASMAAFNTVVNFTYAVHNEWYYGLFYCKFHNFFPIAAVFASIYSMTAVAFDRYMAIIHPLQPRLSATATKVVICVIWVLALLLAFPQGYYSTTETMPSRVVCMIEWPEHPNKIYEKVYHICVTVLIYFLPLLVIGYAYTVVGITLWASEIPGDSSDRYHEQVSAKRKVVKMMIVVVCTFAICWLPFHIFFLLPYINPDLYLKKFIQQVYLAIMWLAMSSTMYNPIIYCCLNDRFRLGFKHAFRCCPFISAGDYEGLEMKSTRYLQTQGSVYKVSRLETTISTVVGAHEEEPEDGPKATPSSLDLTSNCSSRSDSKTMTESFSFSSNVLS
Hepatitis C virus serine protease, NS3/NS4A, sequence (D2K2A8 whole entry): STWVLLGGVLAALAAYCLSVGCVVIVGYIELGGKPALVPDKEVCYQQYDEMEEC
Hepatitis C virus serine protease, NS3/NS4A, sequence (A3EZI9 whole entry): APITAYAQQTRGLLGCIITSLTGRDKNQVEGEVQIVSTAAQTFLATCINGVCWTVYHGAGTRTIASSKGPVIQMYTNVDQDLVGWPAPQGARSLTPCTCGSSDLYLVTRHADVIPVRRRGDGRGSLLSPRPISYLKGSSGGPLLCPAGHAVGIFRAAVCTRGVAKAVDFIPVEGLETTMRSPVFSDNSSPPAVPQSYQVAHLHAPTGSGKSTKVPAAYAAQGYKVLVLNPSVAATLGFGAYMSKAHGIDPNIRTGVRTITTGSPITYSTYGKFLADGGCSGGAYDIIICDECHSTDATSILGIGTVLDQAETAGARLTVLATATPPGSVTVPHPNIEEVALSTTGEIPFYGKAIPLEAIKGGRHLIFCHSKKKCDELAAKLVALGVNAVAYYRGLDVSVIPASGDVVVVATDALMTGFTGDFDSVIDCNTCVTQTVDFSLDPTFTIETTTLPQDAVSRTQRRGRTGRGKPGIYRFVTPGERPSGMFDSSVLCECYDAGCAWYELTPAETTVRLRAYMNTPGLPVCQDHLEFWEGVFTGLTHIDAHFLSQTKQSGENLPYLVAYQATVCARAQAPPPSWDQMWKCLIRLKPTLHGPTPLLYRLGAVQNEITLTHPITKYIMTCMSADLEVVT
PXR (NR1I2), sequence (O75469 whole entry): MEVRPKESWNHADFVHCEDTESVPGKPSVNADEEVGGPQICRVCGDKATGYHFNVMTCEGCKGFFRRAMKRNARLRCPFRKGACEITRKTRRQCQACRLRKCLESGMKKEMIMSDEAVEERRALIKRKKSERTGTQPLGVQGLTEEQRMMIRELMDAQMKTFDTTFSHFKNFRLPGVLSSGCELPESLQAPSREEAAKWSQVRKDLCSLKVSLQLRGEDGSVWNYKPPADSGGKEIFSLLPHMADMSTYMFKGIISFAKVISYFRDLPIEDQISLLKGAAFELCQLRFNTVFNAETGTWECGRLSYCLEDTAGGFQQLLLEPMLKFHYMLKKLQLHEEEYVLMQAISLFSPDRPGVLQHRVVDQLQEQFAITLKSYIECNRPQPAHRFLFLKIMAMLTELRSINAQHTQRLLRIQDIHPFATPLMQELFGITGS
Sterol O-acyltransferase 1, sequence (O70536 whole entry): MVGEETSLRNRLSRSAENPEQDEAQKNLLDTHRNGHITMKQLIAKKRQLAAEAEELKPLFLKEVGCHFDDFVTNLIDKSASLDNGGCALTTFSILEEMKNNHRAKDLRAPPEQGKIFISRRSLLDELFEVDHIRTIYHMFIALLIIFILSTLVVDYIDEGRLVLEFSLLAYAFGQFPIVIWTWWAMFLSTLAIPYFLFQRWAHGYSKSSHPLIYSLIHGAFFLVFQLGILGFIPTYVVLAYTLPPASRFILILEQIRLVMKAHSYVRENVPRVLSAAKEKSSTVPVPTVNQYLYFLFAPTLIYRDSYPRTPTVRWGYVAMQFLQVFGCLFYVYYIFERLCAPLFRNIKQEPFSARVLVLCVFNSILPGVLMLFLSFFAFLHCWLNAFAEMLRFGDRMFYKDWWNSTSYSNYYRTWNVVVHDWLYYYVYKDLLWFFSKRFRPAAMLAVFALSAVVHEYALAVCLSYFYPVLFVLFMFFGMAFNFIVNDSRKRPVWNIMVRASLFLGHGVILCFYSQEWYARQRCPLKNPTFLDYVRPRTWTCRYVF

## Fc1ccc([C@@H]2NCCO[C@@]23CC[C@H](c2ccccc2C(F)(F)F)CO3)cc1
Substance-P receptor
  Activity: 44%

## CC[C@H](C)C[C@H](C)CCCCCCCCC(=O)N[C@H]1C[C@@H](O)[C@@H](NCCN)NC(=O)[C@@H]2[C@@H](O)CCN2C(=O)[C@H]([C@H](O)CCN)NC(=O)[C@H]([C@H](O)[C@@H](O)c2ccc(O)cc2)NC(=O)[C@@H]2C[C@@H](O)CN2C(=O)[C@H]([C@@H](C)O)NC1=O [CASPOFUNGIN]
Candida albicans [1]
  IC50: 0.6 nM
[2]
  clearance: 0.26 mL/min/kg
[3]
  clearance: 0.21 mL/min/kg
Candida albicans [4]
  MFC: 0.125 µg/mL (≈ 0.114 µM)

## Fc1ccc([C@@H]2NCCO[C@]23CC[C@@H](c2ccccc2C(F)(F)F)CO3)cc1
Substance-P receptor
  Activity: 47%

## CCCCC[C@H](O)/C=C/[C@H]1O[C@H]2C[C@H](O2)[C@@H]1C/C=C\CCCC(=O)O
[5]
  K: 5.5 10^5/M/s
[6]
  EC50: 162 nM

## c1ccc([C@@]23OC[C@@H](CCn4c2nc2ccccc24)O3)cc1
Mus musculus [7]
  ED50: 100 mg/kg

## C[C@]1(COC(=O)Cc2ccc(O)c(O)c2)[C@H](C(=O)O)N2C(=O)/C(=C/c3ccccn3)[C@H]2S1(=O)=O
[8]
  IC50: 8 nM
[9]
  IC50: 3 nM
[10]
  IC50: 15 nM

## c1ccc(-c2nc(C3OCCCO3)[nH]c2-c2ccccc2)cc1
[11]
  IC50: 110 nM

## C[C@@H]1CC[C@H]2[C@@H](C)[C@](O)(C(F)(F)F)O[C@@H]3O[C@@]4(C)CC[C@@H]1[C@]32OO4
[12]
  half-life: 760 h
[13]
  bioavailability: 28%
[14]
  half-life: 1.43 h
Plasmodium falciparum
  IC50: 2.6 nM

## Cc1cc(C)n(CCC[C@H]2CO[C@@H](c3nc(-c4ccccc4)c(-c4ccccc4)[nH]3)OC2)n1
[15]
  concentration at 1.5 h: 1300 nM

## C[C@]1(NC(=O)N2CCOCC2)CO[C@H](c2nc(-c3ccncc3)c(-c3ccc(F)cc3)[nH]2)OC1
[16]
  bioavailability: 50%
Mus musculus [17]
  ED50: < 10 mg/kg
MAP kinase p38
  IC50: 50 nM

## CC1OCCO1
[18]
  K: 5.1 10^3No_unit

## COc1ccc(C2=CN(CNC(C)=O)CC2=O)cc1
[19]
  degraded at 18 h: < 1%
[20]
  pKa: < 6
[21]
  degraded at 18 h: 40%

## COC(=O)[C@H]1[C@@H](c2ccc(Cl)c(Cl)c2)C[C@@H]2CC[C@H]1O2
[22]
  IC50: 3.27 nM
[23]
  IC50: 4.67 nM

## CC(C)(N)CNC(=O)CC1CCC2(CC1)OOC1(O2)C2CC3CC(C2)CC1C3 (configuration not stated)
[16]
  bioavailability: 35%
[24]
  half-life: 1 h

## c1ccc(-c2nc([C@H]3OC[C@@H](CCCCN4CCSCC4)CO3)[nH]c2-c2ccccc2)cc1
[15]
  concentration at 1.5 h: 2200 nM

## CCC[C@H](NC(=O)[C@@H]1[C@H]2O[C@H]3CCCOc4cccc(c4)CC(=O)N[C@@H](C4CCCCC4)CN1C[C@@H]2O3)C(=O)C(=O)NCC(=O)N[C@H](C(=O)O)c1ccccc1
[25]
  Ki: 38 nM

## Nc1ccn([C@H]2CS[C@@H](CO)O2)c(=O)n1
[26]
  IC50: 1220 nM
[27]
  EC50: 200 nM

## COC(=O)[C@H]1[C@@H](c2ccc(Cl)c(Cl)c2)C[C@@H]2CC[C@H]1N2C
[22]
  IC50: 1.1 nM
[23]
  IC50: 2 nM

## CC1(C)O[C@H]2[C@H](O)[C@H](O)CO[C@@]2(COS(N)(=O)=O)O1
Mus musculus [28]
  Activity: 40%

## O=C(NCc1c(F)cc(F)cc1F)c1cn2c(c(O)c1=O)C(=O)N1[C@H]3CC[C@H](C3)O[C@@H]1C2 [BICTEGRAVIR]
[29]
  bioavailability: 28%
[30]
  half-life: 19 h
[31]
  solubility: 119 µg/mL (≈ 265 µM)
[32]
  bioavailability: 50%
[33]
  Ratio EC50: 2
[34]
  Fu: 0.3%
[35]
  EC50: 1.9 nM
PXR (NR1I2)
  Emax at 15 µM: 18%

## O=c1[nH]nc(CN2CCO[C@H](OCc3cc(C(F)(F)F)cc(C(F)(F)F)c3)[C@@H]2c2ccccc2)[nH]1
[36]
  IC50: 12000 nM
[20]
  pKa: < 3
Cavia porcellus
  ED50: 0.009 mg/kg
